For test [1], the target named is T1, human orexin 2 receptors (Homo sapiens, UniProt O43614).
T1 sequence (O43614 1-444): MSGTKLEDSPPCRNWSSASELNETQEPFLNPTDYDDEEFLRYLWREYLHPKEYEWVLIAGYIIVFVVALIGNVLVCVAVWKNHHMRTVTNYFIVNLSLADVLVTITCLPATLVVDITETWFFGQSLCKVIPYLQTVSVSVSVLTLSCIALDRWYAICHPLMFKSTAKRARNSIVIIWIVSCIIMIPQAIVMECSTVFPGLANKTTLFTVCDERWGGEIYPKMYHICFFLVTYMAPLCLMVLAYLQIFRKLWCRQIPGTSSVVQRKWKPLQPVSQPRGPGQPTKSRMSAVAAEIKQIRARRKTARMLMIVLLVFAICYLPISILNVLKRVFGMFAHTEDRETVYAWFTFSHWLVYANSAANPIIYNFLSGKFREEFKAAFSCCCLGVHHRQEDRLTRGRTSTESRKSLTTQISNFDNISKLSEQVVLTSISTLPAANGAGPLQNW
The test is described as follows: Radioligand binding assay ([3H]-SB649868 competition), hOx2R. The following applies: competition with about 1 nM [3H]-SB649868; CHO or HEK cell membranes expressing human orexin 2 receptor; read-out: binding hOx2R Kd. As for the experimental part:
(§1) The cell pellet was either stored at −80° C. or used directly. Before the experiments, cell membranes were re-suspended in binding assay buffer (10 mM HEPES, 0.5% (w/v) bovine serum albumin, pH 7.5) by homogenisation with a Polytron homogeniser at 50 Hz for 20 s. Cell membranes were also used as made available by commercial providers.
(§2) Bound radioactivity was measured, and data were analysed with the program XLFIT or Graphpad Prism. Protein concentration was determined according to the Bradford/BioRad Protein Assay Kit.
(§3) In competition experiments, cell homogenates (150 μl) were incubated in assay buffer (10 mM HEPES, pH 7.5, 0.5% (w/v) bovine serum albumin, 5 mM MgCl2, 1 mMCaCl2, and tween 0.05%) for 1 h at room temperature with about 1 nM of the radioligand [^3H]-SB649868, 66 Ci/mmole, 50 μl), and with various concentrations of compounds of the invention (50 μl) in triplicates; non-specific binding was determined in the presence of almorexant (10 μM).

The target of test [2] is T2, human orexin 1 receptors (Homo sapiens, UniProt O43613).
T2 sequence (O43613 1-425): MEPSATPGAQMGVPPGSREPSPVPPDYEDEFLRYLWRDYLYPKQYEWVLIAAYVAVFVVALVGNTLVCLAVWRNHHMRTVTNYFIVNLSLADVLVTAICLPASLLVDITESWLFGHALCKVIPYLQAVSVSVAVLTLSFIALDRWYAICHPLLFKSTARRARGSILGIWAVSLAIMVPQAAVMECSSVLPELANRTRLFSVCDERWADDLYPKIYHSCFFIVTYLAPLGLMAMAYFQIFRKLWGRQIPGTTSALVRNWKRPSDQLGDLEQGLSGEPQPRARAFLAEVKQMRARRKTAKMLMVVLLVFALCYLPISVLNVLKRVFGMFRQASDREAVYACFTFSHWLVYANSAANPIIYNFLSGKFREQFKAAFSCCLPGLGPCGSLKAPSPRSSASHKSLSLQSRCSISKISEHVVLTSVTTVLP
Briefly: Radioligand binding assay ([3H]-SB649868 competition), hOx1R. The conditions noted are these: competition with about 1 nM [3H]-SB649868; CHO or HEK cell membranes expressing human orexin 1 receptor. As for the experimental part: as §1, §2
as §3, with “μM). Reactions were terminated by vacuum filtration, 3 washes of ice cold wash buffer (Tris-HCl pH 7.4/10 mM, with NaCl 154 mM). Competition data is expressed in Table 2 as Kd [μM].” for “μM).”

The target of test [3] is T1, human orexin 2 receptors. The test is described as follows: Calcium accumulation in cells (FLIPR), hOx2R. The class given is cell-based. The conditions noted are these: cells expressing human orexin 2 receptor; inhibition of orexin A-induced calcium accumulation; Cheng and Prusoff correction.
Experimental: Cells expressing human orexin 1 or human orexin 2 receptors, were seeded at 8,000 cells/well in 384 well black-walled clear bottom, poly-D-lysine coated plates. After 24 h, the medium was removed and cells were washed once with phosphate buffered saline and serum-deprived overnight in assay buffer (130 mM NaCl, 5.4 mM KCl, 1.8 mM CaCl2, 0.8 mM MgSO4, 0.9 mM NaH2PO4, 25 mM glucose, 20 mM HEPES, pH 7.4) containing bovine serum albumin (1% w/v).
On the day of the experiment, the cells seeded in black plates were treated with assay buffer containing the Ca^2+sensitive fluorescent dye Fluo-4-AM (2 μM), and probenecid (0.1 mM). After 1 h plates were washed twice with, and resuspended in, assay buffer containing probenecid (0.1 mM) using a multi plate washer. […] Fluorescence measurements were then continued every 1 S for 120 S followed by every 4 S for 240 S.
The measurements were typically made in two sequences:
Compounds of formula I were tested usually in a concentration range from 10^−9 M to 10^−5 M. In the second round, performed one hour later (to allow for equilibration), Orexin A was tested either in the absence (calibration curves, Orexin A agonist controls) or in the presence of compounds of formula I to determine antagonism.
Test [4] has as its target T2, human orexin 1 receptors. Briefly: Calcium accumulation in cells (FLIPR), hOx1R. The conditions noted are these: for inhibition at 10 µM: read-out: FLIPR hOx1R % inhibition value.

What is called Kd is the free concentration of one partner at which half of the binding sites on the other are occupied at equilibrium, for simple one-to-one binding. As to `Cc1cc(C)nc(N2CCC3(CCCN(Cc4ccccc4-c4nc(C)no4)C3=O)CC2)n1` [Example 1, 9-(4,6-dimethylpyrimidin-2-yl)-2-(2-(3-methyl-1,2,4-oxadiazol-5-yl)benzyl)-2,9-diazaspiro[5.5]undecan-1-one], the equilibrium dissociation constant (Kd) at human orexin 2 receptors [1] worked out at 66 nM; on human orexin 1 receptors [2] it was 2020 nM.

A word on the Ki: it is a dissociation constant, usually derived from enzyme kinetics or from competition with a known ligand. The term inhibition denotes the change of the read-out against control, counted positive when it falls. For the molecule `Cc1cc(C)nc(N2CCC3(CCCN(Cc4ccccc4-n4nccn4)C3=O)CC2)n1` [Example 2, 2-(2-(2H-1,2,3-triazol-2-yl)benzyl)-9-(4,6-dimethylpyrimidin-2-yl)-2,9-diazaspiro[5.5]undecan-1-one], the dissociation constant Kd at human orexin 2 receptors [1] is 259 nM; on human orexin 1 receptors [2] it was greater than 10000 nM. Moreover, the Ki at human orexin 2 receptors [3] was determined as 86 nM. Also, the inhibition at 10 µM on human orexin 1 receptors [4] came to 22%.

`Cc1cc(C)nc(N2CCC3(CCCC(=O)N3Cc3cccc4[nH]ccc34)CC2)n1` [Example 3, 1-((1H-indol-4-yl)methyl)-9-(4,6-dimethylpyrimidin-2-yl)-1,9-diazaspiro[5.5]undecan-2-one]: the Kd at human orexin 2 receptors [1] is 12 nM; at human orexin 1 receptors [2], 483 nM. Further, the inhibition constant (Ki) on human orexin 2 receptors [3] came out at 0.9 nM; on human orexin 1 receptors [4] it was 381 nM.

Turning to `COc1cc(C)nc(N2CCC3(CCCN(Cc4c[nH]c5ccccc45)C3=O)CC2)n1` [Example 4, 2-((1H-indol-3-yl)methyl)-9-(4-methoxy-6-methylpyrimidin-2-yl)-2,9-diazaspiro[5.5]undecan-1-one], the dissociation constant (Kd) at human orexin 2 receptors [1] was determined as 43 nM; on human orexin 1 receptors [2] it was 863 nM. The Ki at human orexin 2 receptors [3] was found to be 2.2 nM; at human orexin 1 receptors [4], 135 nM.

On to `Cc1cc(C)nc(N2CCC3(CCCN(Cc4c[nH]c5ccccc45)C3=O)CC2)n1` [Example 5, 2-((1H-indol-3-yl)methyl)-9-(4,6-dimethylpyrimidin-2-yl)-2,9-diazaspiro[5.5]undecan-1-one], for which the Kd is 35 nM on human orexin 2 receptors [1] and 966 nM at human orexin 1 receptors [2]. Besides, the Ki was determined as 10 nM on human orexin 2 receptors [3] and 870 nM on human orexin 1 receptors [4].

`Cc1cc(C)nc(N2CCC3(CCCN(Cc4cn(C)c5ccccc45)C3=O)CC2)n1` [Example 6, 9-(4,6-dimethylpyrimidin-2-yl)-2-((1-methyl-1H-indol-3-yl)methyl)-2,9-diazaspiro[5.5]undecan-1-one]: the results for the dissociation constant (Kd) on human orexin 2 receptors [1] and on human orexin 1 receptors [2] were 153 nM and 4540 nM, respectively. For the same molecule, the Ki was 26 nM on human orexin 2 receptors [3] and 1530 nM at human orexin 1 receptors [4].

Take `Cc1cncc(N2CCC3(CCCC(=O)N3Cc3c[nH]c4ccccc34)CC2)n1` [Example 7, 1-((1H-indol-3-yl)methyl)-9-(6-methylpyrazin-2-yl)-1,9-diazaspiro[5.5]undecan-2-one]: the dissociation constant (Kd) at human orexin 2 receptors [1] is 698 nM; on human orexin 1 receptors [2], 7440 nM. At human orexin 2 receptors [3], the Ki is 86 nM. At human orexin 1 receptors [4], the inhibition at 10 µM came out at 14%.

With `Cc1cccc(N2CCC3(CCCN(Cc4c[nH]c5ccccc45)C3=O)CC2)n1` [Example 9, 2-((1H-indol-3-yl)methyl)-9-(6-methylpyridin-2-yl)-2,9-diazaspiro[5.5]undecan-1-one], the results for the Kd at human orexin 2 receptors [1] and on human orexin 1 receptors [2] were 265 nM and 2430 nM, respectively. In addition, the results for the Ki on human orexin 2 receptors [3] and on human orexin 1 receptors [4] were 54 nM and 1560 nM, respectively.

On to `N#Cc1ccnc(N2CCC3(CCCN(Cc4c[nH]c5ccccc45)C3=O)CC2)c1` [Example 10, 2-(2-((1H-indol-3-yl)methyl)-1-oxo-2,9-diazaspiro[5.5]undecan-9-yl)isonicotinonitrile], for which the Kd at human orexin 2 receptors [1] worked out at 116 nM; on human orexin 1 receptors [2] it was 1720 nM. Besides, the inhibition constant (Ki) on human orexin 2 receptors [3] was determined as 20 nM; at human orexin 1 receptors [4], 1190 nM.

In the case of `Cc1cncc(N2CCC3(CCCN(Cc4c[nH]c5ccccc45)C3=O)CC2)n1` [Example 11, 2-((1H-indol-3-yl)methyl)-9-(6-methylpyrazin-2-yl)-2,9-diazaspiro[5.5]undecan-1-one], the equilibrium dissociation constant (Kd) was determined as 244 nM on human orexin 2 receptors [1] and 6590 nM at human orexin 1 receptors [2]. For the same molecule, the Ki on human orexin 2 receptors [3] was 23 nM; on human orexin 1 receptors [4] it was 1390 nM.

Regarding `Cc1ccnc(N2CCC3(CCCN(Cc4c[nH]c5ccccc45)C3=O)CC2)n1` [Example 12, 2-((1H-indol-3-yl)methyl)-9-(4-methylpyrimidin-2-yl)-2,9-diazaspiro[5.5]undecan-1-one], the dissociation constant Kd at human orexin 2 receptors [1] was 56 nM; on human orexin 1 receptors [2], 1170 nM. The results for the inhibition constant Ki at human orexin 2 receptors [3] and on human orexin 1 receptors [4] were 30 nM and 1500 nM, respectively.

As for `COc1ccnc(N2CCC3(CCCN(Cc4c[nH]c5ccccc45)C3=O)CC2)n1` [Example 13, 2-((1H-indol-3-yl)methyl)-9-(4-methoxypyrimidin-2-yl)-2,9-diazaspiro[5.5]undecan-1-one], the dissociation constant Kd on human orexin 2 receptors [1] is 74 nM; on human orexin 1 receptors [2], 924 nM. On human orexin 1 receptors [4], the Ki came out at 527 nM.

As for `Cc1cc(C)nc(N2CCC3(CCCN(Cc4ccccc4-c4ccco4)C3=O)CC2)n1` [Example 15, 9-(4,6-dimethylpyrimidin-2-yl)-2-(2-(furan-2-yl)benzyl)-2,9-diazaspiro[5.5]undecan-1-one], the dissociation constant (Kd) is 109 nM on human orexin 2 receptors [1] and 2830 nM on human orexin 1 receptors [2]. The Ki stood at 13 nM at human orexin 2 receptors [3] and 855 nM on human orexin 1 receptors [4].

`Cc1cc(C)nc(N2CCC3(CCCN(Cc4cccc5c4OCCO5)C3=O)CC2)n1` [Example 20, 2-((2,3-dihydrobenzo[b][1,4]dioxin-5-yl)methyl)-9-(4,6-dimethylpyrimidin-2-yl)-2,9-diazaspiro[5.5]undecan-1-one]: the Kd at human orexin 2 receptors [1] is 211 nM; at human orexin 1 receptors [2] it was 8550 nM. For the same molecule, the inhibitory constant (Ki) is 42 nM on human orexin 2 receptors [3] and 2530 nM at human orexin 1 receptors [4].

In the case of `Cc1cc(C)nc(N2CCC3(CCCN(Cc4cccc(-c5noc(C)n5)c4)C3=O)CC2)n1` [Example 22, 9-(4,6-dimethylpyrimidin-2-yl)-2-(3-(5-methyl-1,2,4-oxadiazol-3-yl)benzyl)-2,9-diazaspiro[5.5]undecan-1-one], the values for the Kd at human orexin 2 receptors [1] and at human orexin 1 receptors [2] were 151 nM and 1300 nM, respectively. Also, the Ki was found to be 31 nM at human orexin 2 receptors [3] and 755 nM on human orexin 1 receptors [4].

On to `COC(=O)c1ccc2[nH]cc(CN3CCCC4(CCN(c5nc(C)cc(C)n5)CC4)C3=O)c2c1` [Example 115, Methyl 3-((9-(4,6-dimethylpyrimidin-2-yl)-1-oxo-2,9-diazaspiro[5.5]undecan-2-yl)methyl)-1H-indole-5-carboxylate], for which the results for the Kd on human orexin 2 receptors [1] and at human orexin 1 receptors [2] were 3 nM and 52 nM, respectively.

Turning to `COCc1cccc(CN2CCCC3(CCN(c4nc(C)cc(C)n4)CC3)C2=O)c1` [Example 125, 9-(4,6-dimethylpyrimidin-2-yl)-2-(3-(methoxymethyl)benzyl)-2,9-diazaspiro[5.5]undecan-1-one], the inhibitory constant (Ki) on human orexin 2 receptors [3] was 177 nM. Moreover, on human orexin 1 receptors [4], the inhibition at 10 µM was found to be 22%.

Regarding `COCc1ccccc1CN1CCCC2(CCN(c3nc(C)cc(C)n3)CC2)C1=O` [Example 126, 9-(4,6-dimethylpyrimidin-2-yl)-2-(2-(methoxymethyl)benzyl)-2,9-diazaspiro[5.5]undecan-1-one], the Ki on human orexin 2 receptors [3] turned out to be 140 nM. Also, the inhibition at 10 µM at human orexin 1 receptors [4] was 31%.

In the case of `COCc1cccc(CN2CCCC3(CCN(c4nc(C)cc(OC)n4)CC3)C2=O)c1` [Example 127, 9-(4-methoxy-6-methylpyrimidin-2-yl)-2-(3-(methoxymethyl)benzyl)-2,9-diazaspiro[5.5]undecan-1-one], the Ki at human orexin 2 receptors [3] turned out to be 100 nM; on human orexin 1 receptors [4], 2110 nM.

(Values after patent US20120101110A1, “Diaza-spiro[5.5]undecanes” (priority 2010, published 2012).)
